In US10597388B2, “Pyridazinone herbicides” (FMC CORPORATION, priority 2014, dated 2020):

Experiments:
Assay type in all cases: in vivo
[1] = system: pigweed (Amaranthus retroflexus); test: Test A greenhouse herbicide test, pre- and postemergence
Summary of the method: (§1)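 Seeds sown in loam–sand blend got a preemergence directed soil spray of compound in non-phytotoxic solvent with surfactant. Postemergence treatment was given at 2–10 cm, one- to two-leaf stage. After ~10 d in greenhouse, injury was rated visually vs untreated controls, 0 (no effect) to 100 (complete control).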

[2] = system: ryegrass, Italian (Italian ryegrass, Lolium multiflorum); test: as above
Summary of the method: as §1

[3] = system: wheat (Triticum aestivum); test: as above; settings: Postemergence; for Plant response rating, Wheat: 125 g ai/ha, visual rating after approx. 10 d, 0 to 100 scale (0 no effect, 100 complete control); for Wheat plant response rating: 500 g ai/ha, 0 to 100 scale, 0 is no effect, 100 is complete control
Summary of the method: as §1

[4] = system: blackgrass (Alopecurus myosuroides); test: Test A greenhouse herbicide test, postemergence; settings: for Plant response rating, Blackgrass: 125 g ai/ha, visual rating after approx. 10 d, 0 to 100 scale (0 no effect, 100 complete control); for Blackgrass plant response rating: 500 g ai/ha, 0 to 100 scale, 0 is no effect, 100 is complete control
Summary of the method: (§2)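 Plants grown in loam soil/sand blend pots were treated postemergence at 2 to 10 cm height, one- to two-leaf stage, with formulated test chemicals. After approximately 10 d in a greenhouse, injury was rated visually against untreated controls on a 0 to 100 scale (0 no effect, 100 complete control).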

[5] = system: galium (catchweed bedstraw, Galium aparine); test: Test A greenhouse herbicide test, postemergence; settings: for Plant response rating, Galium: 125 g ai/ha, visual rating after approx. 10 d, 0 to 100 scale (0 no effect, 100 complete control); for Galium plant response rating: 500 g ai/ha, 0 to 100 scale, 0 is no effect, 100 is complete control
Summary of the method: as §2

[6] = system: lambsquarters (Chenopodium album); test: Test C greenhouse herbicide test, pre- and postemergence
Text: (§3) Seeds of plant species selected from blackgrass (Alopecurus myosuroides), ryegrass, Italian (Italian ryegrass, Lolium multiflorum), wheat (winter wheat, Triticum aestivum), galium (catchweed bedstraw, Galium aparine), corn (Zea mays), large crabgrass, large (large crabgrass, Digitaria sanguinalis), foxtail, giant (giant foxtail, Setaria faberii), johnsongrass (Sorghum halepense), lambsquarters (Chenopodium album), morningglory (Ipomoea coccinea), nutsedge, yellow (yellow nutsedge, Cyperus esculentus), pigweed (Amaranthus retroflexus), ragweed (common ragweed, Ambrosia elatior), soybean (Glycine max), barnyardgrass (Echinochloa crus-galli), oilseed rape (Brassica napus), waterhemp (common waterhemp, Amaranthus rudis), and velvetleaf (Abutilon theophrasti) were planted into a blend of loam soil and sand and treated preemergence with test chemicals formulated in a non-phytotoxic solvent mixture which included a surfactant.
(§4) At the same time, plants selected from these crop and weed species and also chickweed (common chickweed, Stellaria media), kochia (Kochia scoparia), and oat, wild (wild oat, Avena fatua), were planted in pots containing Redi-Earth® planting medium (Scotts Company, 14111 Scottslawn Road, Marysville, Ohio 43041) comprising spaghnum peat moss, vermiculite, wetting agent and starter nutrients and treated with postemergence applications of test chemicals formulated in the same manner. Plants ranged in height from 2 to 18 cm (1- to 4-leaf stage) for postemergence treatments. Treated plants and controls were maintained in a greenhouse for 13 to 15 d, after which time all species were compared to controls and visually evaluated. Plant response ratings, summarized in Table C, are based on a scale of 0 to 100 where 0 is no effect and 100 is complete control. A dash (-) response means no test result.

[7] = system: morningglory (Ipomoea coccinea); test: as above
Text: as §3, §4

[8] = system: oilseed rape (Brassica napus); test: as above
Text: as §3, §4

[9] = system: pigweed (Amaranthus retroflexus); test: as above
Text: as §3, §4

[10] = system: ragweed (common ragweed, Ambrosia elatior); test: as above
Text: as §3, §4

[11] = system: waterhemp (common waterhemp, Amaranthus rudis); test: as above
Text: as §3, §4

[12] = Postemergence, 125 g ai/ha, visual rating after approx. 10 d, 0 to 100 scale (0 no effect, 100 complete control)
[13] = Postemergence, 500 g ai/ha, 0 to 100 scale, 0 is no effect, 100 is complete control
[14] = Preemergence, 125 g ai/ha, 0 to 100 scale where 0 is no effect and 100 is complete control
[15] = Preemergence, 500 g ai/ha, 0 to 100 scale, 0 no effect, 100 complete control
[16] = Postemergence, 31 g ai/ha, 0 to 100 scale (0 no effect, 100 complete control)
[17] = Postemergence, 125 g ai/ha, scale 0 to 100, 0 is no effect, 100 is complete control
[18] = Postemergence, 250 g ai/ha, scale 0 to 100, 0 no effect, 100 complete control, 13 to 15 d
[19] = Preemergence, 31 g ai/ha, scale 0 to 100, 0 is no effect, 100 is complete control
[20] = Preemergence, 62 g ai/ha, scale 0 to 100, 0 is no effect, 100 is complete control
[21] = Preemergence, 125 g ai/ha, scale 0 to 100, 0 is no effect, 100 is complete control
[22] = Preemergence, 250 g ai/ha, scale 0 to 100, 0 no effect, 100 complete control
[23] = postemergence, 62 g ai/ha, scale 0 to 100, 0 no effect, 100 complete control

## Cn1nc(Br)c(O)c(-c2cccc3ccccc23)c1=O [Compound 20]
[1]; [12]
  Plant response rating, Pigweed: 100
[1]; [13]
  Pigweed plant response rating: 100
[1]; [14]
  Pigweed plant response rating: 80
[1]; [15]
  Plant response rating, Pigweed: 100
[2]; [12]
  Plant response rating, Ryegrass, Italian: 100
[2]; [13]
  Ryegrass, Italian plant response rating: 100
[2]; [14]
  Ryegrass, Italian plant response rating: 90
[2]; [15]
  Plant response rating, Ryegrass, Italian: 100
[3]
  Plant response rating, Wheat: 20
  Wheat plant response rating: 30
[4]
  Plant response rating, Blackgrass: 30
  Blackgrass plant response rating: 40
[5]
  Plant response rating, Galium: 90
  Galium plant response rating: 100
[6]; [16]
  Lambsquarters plant response rating: 80
[6]; [17]
  Plant response rating, Lambsquarters: 100
[6]; [18]
  Plant response rating, Lambsquarters: 100
[6]; [19]
  Plant response rating, Lambsquarters: 80
[6]; [20]
  Plant response rating, Lambsquarters: 85
[6]; [21]
  Plant response rating, Lambsquarters: 85
[6]; [22]
  Lambsquarters plant response rating: 90
[6]; [23]
  Lambsquarters plant response rating: 85
[7]; [16]
  Morningglory plant response rating: 100
[7]; [17]
  Plant response rating, Morningglory: 100
[7]; [18]
  Plant response rating, Morningglory: 100
[7]; [19]
  Plant response rating, Morningglory: 85
[7]; [20]
  Plant response rating, Morningglory: 98
[7]; [21]
  Plant response rating, Morningglory: 98
[7]; [22]
  Morningglory plant response rating: 100
[7]; [23]
  Morningglory plant response rating: 100
[8]; [16]
  Oilseed Rape plant response rating: 0
[8]; [17]
  Plant response rating, Oilseed Rape: 5
[8]; [18]
  Plant response rating, Oilseed Rape: 25
[8]; [19]
  Plant response rating, Oilseed Rape: 0
[8]; [20]
  Plant response rating, Oilseed Rape: 0
[8]; [21]
  Plant response rating, Oilseed Rape: 0
[8]; [22]
  Oilseed Rape plant response rating: 20
[8]; [23]
  Oilseed Rape plant response rating: 0
[9]; [16]
  Pigweed plant response rating: 75
[9]; [17]
  Plant response rating, Pigweed: 98
[9]; [18]
  Plant response rating, Pigweed: 100
[9]; [19]
  Plant response rating, Pigweed: 100
[9]; [20]
  Plant response rating, Pigweed: 100
[9]; [21]
  Plant response rating, Pigweed: 100
[9]; [22]
  Pigweed plant response rating: 100
[9]; [23]
  Pigweed plant response rating: 90
[10]; [16]
  Ragweed plant response rating: 80
[10]; [17]
  Plant response rating, Ragweed: 95
[10]; [18]
  Plant response rating, Ragweed: 100
[10]; [19]
  Plant response rating, Ragweed: 35
[10]; [20]
  Plant response rating, Ragweed: 45
[10]; [21]
  Plant response rating, Ragweed: 70
[10]; [22]
  Ragweed plant response rating: 75
[10]; [23]
  Ragweed plant response rating: 85
[11]; [16]
  Waterhemp plant response rating: 70
[11]; [17]
  Plant response rating, Waterhemp: 60
[11]; [18]
  Plant response rating, Waterhemp: 90
[11]; [20]
  Plant response rating, Waterhemp: 100
[11]; [21]
  Plant response rating, Waterhemp: 100
[11]; [22]
  Waterhemp plant response rating: 100
[11]; [23]
  Waterhemp plant response rating: 40

## Cc1cc(C)c2ccccc2c1-c1c(O)c(C)nn(C)c1=O [Compound 21]
[1]; [12]
  Plant response rating, Pigweed: 100
[1]; [13]
  Pigweed plant response rating: 100
[1]; [14]
  Pigweed plant response rating: 100
[1]; [15]
  Plant response rating, Pigweed: 100
[2]; [12]
  Plant response rating, Ryegrass, Italian: 100
[2]; [13]
  Ryegrass, Italian plant response rating: 100
[2]; [14]
  Ryegrass, Italian plant response rating: 100
[2]; [15]
  Plant response rating, Ryegrass, Italian: 100
[3]
  Plant response rating, Wheat: 10
  Wheat plant response rating: 60
[4]
  Plant response rating, Blackgrass: 90
  Blackgrass plant response rating: 90
[5]
  Plant response rating, Galium: 100
  Galium plant response rating: 100
[6]; [16]
  Lambsquarters plant response rating: 85
[6]; [17]
  Plant response rating, Lambsquarters: 95
[6]; [18]
  Plant response rating, Lambsquarters: 98
[6]; [19]
  Plant response rating, Lambsquarters: 90
[6]; [20]
  Plant response rating, Lambsquarters: 98
[6]; [21]
  Plant response rating, Lambsquarters: 98
[6]; [22]
  Lambsquarters plant response rating: 100
[6]; [23]
  Lambsquarters plant response rating: 90
[7]; [16]
  Morningglory plant response rating: 85
[7]; [17]
  Plant response rating, Morningglory: 100
[7]; [18]
  Plant response rating, Morningglory: 100
[7]; [19]
  Plant response rating, Morningglory: 95
[7]; [20]
  Plant response rating, Morningglory: 98
[7]; [21]
  Plant response rating, Morningglory: 100
[7]; [22]
  Morningglory plant response rating: 100
[7]; [23]
  Morningglory plant response rating: 100
[8]; [16]
  Oilseed Rape plant response rating: 65
[8]; [17]
  Plant response rating, Oilseed Rape: 100
[8]; [18]
  Plant response rating, Oilseed Rape: 100
[8]; [19]
  Plant response rating, Oilseed Rape: 90
[8]; [20]
  Plant response rating, Oilseed Rape: 100
[8]; [21]
  Plant response rating, Oilseed Rape: 100
[8]; [22]
  Oilseed Rape plant response rating: 100
[8]; [23]
  Oilseed Rape plant response rating: 80
[9]; [16]
  Pigweed plant response rating: 70
[9]; [17]
  Plant response rating, Pigweed: 95
[9]; [18]
  Plant response rating, Pigweed: 98
[9]; [19]
  Plant response rating, Pigweed: 100
[9]; [20]
  Plant response rating, Pigweed: 100
[9]; [21]
  Plant response rating, Pigweed: 100
[9]; [22]
  Pigweed plant response rating: 100
[9]; [23]
  Pigweed plant response rating: 95
[10]; [16]
  Ragweed plant response rating: 85
[10]; [17]
  Plant response rating, Ragweed: 90
[10]; [18]
  Plant response rating, Ragweed: 95
[10]; [19]
  Plant response rating, Ragweed: 95
[10]; [20]
  Plant response rating, Ragweed: 100
[10]; [21]
  Plant response rating, Ragweed: 100
[10]; [22]
  Ragweed plant response rating: 100
[10]; [23]
  Ragweed plant response rating: 90
[11]; [16]
  Waterhemp plant response rating: 40
[11]; [17]
  Plant response rating, Waterhemp: 85
[11]; [18]
  Plant response rating, Waterhemp: 80
[11]; [20]
  Plant response rating, Waterhemp: 95
[11]; [21]
  Plant response rating, Waterhemp: 100
[11]; [22]
  Waterhemp plant response rating: 100
[11]; [23]
  Waterhemp plant response rating: 75
